# Patent EP2649091B1, “IMMUNE RESTRICTED PEPTIDES WITH INCREASED EFFICACY” (Stichting Het Nederlands Kanker Instituut, priority 2010, dated 2012)
# Several values for one entry are separate records, joined by “and”; a condition that tells them apart may be missing. Equal values may be shown once. Where no end group is shown, it is not given here. BUTALA = not defined here; am‑phg = not defined here; PHG = not defined here
# How the values were obtained:
# [1] = test system: CD8+ T cells from Influenza A positive donors sorted using tetramers containing HLA A2.1::[…]; assay type: cell-based
# HLA-A0201 = HLA-A0201 (Homo sapiens, UniProt P04439, D140Y/D185E/D98H/E176V/E277Q/G131W/G231S/I119V/I121R/I166T/I218V/L300P/L318F/N151K/N90K/P208A/P217A/Q86G/Q94H/R138H/R169H/T345S); assay type: binding
# [2] = test system: CD8+ T cells from Influenza A positive donors sorted using tetramers containing HLA A2.1::[…]; assay type: cell-based; remark: listed apart in the source
# [3] = test system: CD8+ T cells with SVYDFFVWL (Melanoma, TRP-2, residues 180-188) specific T cell receptor; experiment: T cell activation time course assay, IFNγ production by FACS, TRP-2 epitope; assay type: cell-based; conditions: 48H, peptide 50 picomolar
# Procedure: FACS was employed to obtain results.
# Also for this epitope, an IFNγ expression time-course experiment was performed. The two distinguishing time points 24H and 48H were taken along at peptide concentrations of 5·10^3 pM, 50 pM and 0.5 pM.
# [4] = test system: HLA-A2::Mart-1(26-35) reactive T cells stimulated by T2 cells; experiment: T cell activation time course assay, IFNγ production (FACS), Mart-1 epitope; assay type: cell-based; conditions: for % CD8+ T cells producing IFN-γ 0H / Geometric mean IFN-γ in arbitrary fluorescence units 0H: time point 0H (basal); for % CD8+ T cells producing IFN-γ 2H / Geometric mean IFN-γ in arbitrary fluorescence units 2H: time point 2H; for % CD8+ T cells producing IFN-γ 4H / Geometric mean IFN-γ in arbitrary fluorescence units 4H: time point 4H; for % CD8+ T cells producing IFN-γ 24H / Geometric mean IFN-γ in arbitrary fluorescence units 24H: time point 24H; for % CD8+ T cells producing IFN-γ 24H / Geometric mean IFN-γ in arbitrary fluorescence units 24H / % CD8+ T cells producing IFN-γ 48H / Geometric mean IFN-γ in arbitrary fluorescence units 48H: free peptide washed away; for % CD8+ T cells producing IFN-γ 48H / Geometric mean IFN-γ in arbitrary fluorescence units 48H: time point 48H
# [5] = test system: […]-specific CD8+ T cells; experiment: Mouse vaccination study, tetramer analysis of blood, […]; assay type: in vivo; conditions: mice vaccinated with 5 µg peptide with IFA and CpG, booster at day 97, several timepoints, versus […] vaccinated mice
# Procedure: Three mouse vaccination studies were done using three different wild-type epitopes. In all cases, mice were vaccinated with the peptide supplemented with incomplete freunds ajuvant (IFA) and CpG. Analysis was done by analyzing blood samples with tetramers loaded with wild-type peptide in all cases.
# Two groups of three mice were vaccinated with 5 µg of either […] or [am-phg][NVA]AGIGILT[PRG]. At day 97, mice were administred a second dose (booster). At several timepoints blood was taken and tested for […]-specific CD8+ T cells using tetramers loaded with […]. This was done for both groups of mice.
substance,measurement,setting,value
[am-phg][BUTALA]LGFVFTL,% Positive TCR recognition % TCR,[1],3.32%
same,Geometric mean IFN in arbitrary fluorescence units Geo TCR,[1],155 arbitrary fluorescence units
same,% inhibition at T=4H and T=24H FP 24h,HLA-A0201,96%
same,IC50 Ratio,HLA-A0201,3
same,% CD8+ T cells producing IFN-γ % IFN,[2],2.8%
same,Geometric mean IFN-γ in arbitrary fluorescence units Geo IFN,[2],205 arbitrary fluorescence units
[PHG]I[NLE]GFVFTL,% Positive TCR recognition % TCR,[1],3.26%
same,Geometric mean IFN in arbitrary fluorescence units Geo TCR,[1],235 arbitrary fluorescence units
same,% inhibition at T=4H and T=24H FP 4h,HLA-A0201,86%
same,% inhibition at T=4H and T=24H FP 24h,HLA-A0201,84%
same,IC50 Ratio,HLA-A0201,3
same,% CD8+ T cells producing IFN-γ % IFN,[2],2.9%
same,Geometric mean IFN-γ in arbitrary fluorescence units Geo IFN,[2],270 arbitrary fluorescence units
[CSME][2-AOC]YDFFVWL,% CD8+ T cells producing IFN-γ,[3],significantly above background level
[am-phg][2-AOC]AGIGILT[PRG],% inhibition at T=4H and T=24H FP 4h,HLA-A0201,80%
same,% inhibition at T=4H and T=24H FP 24h,HLA-A0201,77%
same,IC50 Ratio,HLA-A0201,24.3 and 24
same,% CD8+ T cells producing IFN-γ 0H,[4]; peptide 0.5 pM,0%
same,Geometric mean IFN-γ in arbitrary fluorescence units 0H,[4]; peptide 0.5 pM,104 arbitrary fluorescence units
same,% CD8+ T cells producing IFN-γ 2H,[4]; peptide 0.5 pM,26%
same,Geometric mean IFN-γ in arbitrary fluorescence units 2H,[4]; peptide 0.5 pM,207 arbitrary fluorescence units
same,% CD8+ T cells producing IFN-γ 4H,[4]; peptide 0.5 pM,30%
same,Geometric mean IFN-γ in arbitrary fluorescence units 4H,[4]; peptide 0.5 pM,378 arbitrary fluorescence units
same,% CD8+ T cells producing IFN-γ 24H,[4]; peptide 0.5 pM,1%
same,Geometric mean IFN-γ in arbitrary fluorescence units 24H,[4]; peptide 0.5 pM,116 arbitrary fluorescence units
same,% CD8+ T cells producing IFN-γ 48H,[4]; peptide 0.5 pM,0%
same,Geometric mean IFN-γ in arbitrary fluorescence units 48H,[4]; peptide 0.5 pM,88 arbitrary fluorescence units
same,% CD8+ T cells producing IFN-γ 0H,[4]; peptide 50 pM,0%
same,Geometric mean IFN-γ in arbitrary fluorescence units 0H,[4]; peptide 50 pM,109 arbitrary fluorescence units
same,% CD8+ T cells producing IFN-γ 2H,[4]; peptide 50 pM,27%
same,Geometric mean IFN-γ in arbitrary fluorescence units 2H,[4]; peptide 50 pM,258 arbitrary fluorescence units
same,% CD8+ T cells producing IFN-γ 4H,[4]; peptide 50 pM,30%
same,Geometric mean IFN-γ in arbitrary fluorescence units 4H,[4]; peptide 50 pM,592 arbitrary fluorescence units
same,% CD8+ T cells producing IFN-γ 24H,[4]; peptide 50 pM,16%
same,Geometric mean IFN-γ in arbitrary fluorescence units 24H,[4]; peptide 50 pM,187 arbitrary fluorescence units
same,% CD8+ T cells producing IFN-γ 48H,[4]; peptide 50 pM,1%
same,Geometric mean IFN-γ in arbitrary fluorescence units 48H,[4]; peptide 50 pM,86 arbitrary fluorescence units
[am-phg][NVA]AGIGILT[ALG],% inhibition at T=4H and T=24H FP 4h,HLA-A0201,58%
same,% inhibition at T=4H and T=24H FP 24h,HLA-A0201,63%
same,IC50 Ratio,HLA-A0201,2.5 and 2
same,% CD8+ T cells producing IFN-γ 0H,[4]; peptide 0.5 pM,0%
same,Geometric mean IFN-γ in arbitrary fluorescence units 0H,[4]; peptide 0.5 pM,112 arbitrary fluorescence units
same,% CD8+ T cells producing IFN-γ 2H,[4]; peptide 0.5 pM,26%
same,Geometric mean IFN-γ in arbitrary fluorescence units 2H,[4]; peptide 0.5 pM,221 arbitrary fluorescence units
same,% CD8+ T cells producing IFN-γ 4H,[4]; peptide 0.5 pM,29%
same,Geometric mean IFN-γ in arbitrary fluorescence units 4H,[4]; peptide 0.5 pM,350 arbitrary fluorescence units
same,% CD8+ T cells producing IFN-γ 24H,[4]; peptide 0.5 pM,17%
same,Geometric mean IFN-γ in arbitrary fluorescence units 24H,[4]; peptide 0.5 pM,163 arbitrary fluorescence units
same,% CD8+ T cells producing IFN-γ 48H,[4]; peptide 0.5 pM,5%
same,Geometric mean IFN-γ in arbitrary fluorescence units 48H,[4]; peptide 0.5 pM,111 arbitrary fluorescence units
same,% CD8+ T cells producing IFN-γ 0H,[4]; peptide 50 pM,0%
same,Geometric mean IFN-γ in arbitrary fluorescence units 0H,[4]; peptide 50 pM,109 arbitrary fluorescence units
same,% CD8+ T cells producing IFN-γ 2H,[4]; peptide 50 pM,28%
same,Geometric mean IFN-γ in arbitrary fluorescence units 2H,[4]; peptide 50 pM,247 arbitrary fluorescence units
same,% CD8+ T cells producing IFN-γ 4H,[4]; peptide 50 pM,33%
same,Geometric mean IFN-γ in arbitrary fluorescence units 4H,[4]; peptide 50 pM,715 arbitrary fluorescence units
same,% CD8+ T cells producing IFN-γ 24H,[4]; peptide 50 pM,29%
same,Geometric mean IFN-γ in arbitrary fluorescence units 24H,[4]; peptide 50 pM,400 arbitrary fluorescence units
same,% CD8+ T cells producing IFN-γ 48H,[4]; peptide 50 pM,20%
same,Geometric mean IFN-γ in arbitrary fluorescence units 48H,[4]; peptide 50 pM,280 arbitrary fluorescence units
[am-phg][2-AOC]YDFFVWL ({am‑phg-2‑AOC}-YDFFVWL; reading uncertain; also: printed as [am-phg][2-AOC]YDFFVWL),% CD8+ T cells producing IFN-γ,[3],significantly above background level
[am-phg][NVA]AGIGILT[PRG],[…]-specific CD8+ T cells (specific T cell numbers),[5],higher
same,% inhibition at T=4H and T=24H FP 4h,HLA-A0201,67%
same,% inhibition at T=4H and T=24H FP 24h,HLA-A0201,64%
same,IC50 Ratio,HLA-A0201,8.3 and 8
same,% CD8+ T cells producing IFN-γ 0H,[4]; peptide 0.5 pM,0%
same,Geometric mean IFN-γ in arbitrary fluorescence units 0H,[4]; peptide 0.5 pM,141 arbitrary fluorescence units
same,% CD8+ T cells producing IFN-γ 2H,[4]; peptide 0.5 pM,25%
same,Geometric mean IFN-γ in arbitrary fluorescence units 2H,[4]; peptide 0.5 pM,197 arbitrary fluorescence units
same,% CD8+ T cells producing IFN-γ 4H,[4]; peptide 0.5 pM,30%
same,Geometric mean IFN-γ in arbitrary fluorescence units 4H,[4]; peptide 0.5 pM,342 arbitrary fluorescence units
same,% CD8+ T cells producing IFN-γ 24H,[4]; peptide 0.5 pM,16%
same,Geometric mean IFN-γ in arbitrary fluorescence units 24H,[4]; peptide 0.5 pM,165 arbitrary fluorescence units
same,% CD8+ T cells producing IFN-γ 48H,[4]; peptide 0.5 pM,3%
same,Geometric mean IFN-γ in arbitrary fluorescence units 48H,[4]; peptide 0.5 pM,105 arbitrary fluorescence units
same,% CD8+ T cells producing IFN-γ 0H,[4]; peptide 50 pM,0%
same,Geometric mean IFN-γ in arbitrary fluorescence units 0H,[4]; peptide 50 pM,110 arbitrary fluorescence units
same,% CD8+ T cells producing IFN-γ 2H,[4]; peptide 50 pM,28%
same,Geometric mean IFN-γ in arbitrary fluorescence units 2H,[4]; peptide 50 pM,252 arbitrary fluorescence units
same,% CD8+ T cells producing IFN-γ 4H,[4]; peptide 50 pM,32%
same,Geometric mean IFN-γ in arbitrary fluorescence units 4H,[4]; peptide 50 pM,550 arbitrary fluorescence units
same,% CD8+ T cells producing IFN-γ 24H,[4]; peptide 50 pM,28%
same,Geometric mean IFN-γ in arbitrary fluorescence units 24H,[4]; peptide 50 pM,344 arbitrary fluorescence units
same,% CD8+ T cells producing IFN-γ 48H,[4]; peptide 50 pM,18%
same,Geometric mean IFN-γ in arbitrary fluorescence units 48H,[4]; peptide 50 pM,222 arbitrary fluorescence units
[PHG][BUTALA]LGFVFTL ({PHG-BUTALA}-LGFVFTL; reading uncertain),% Positive TCR recognition % TCR,[1],3.16%
same,Geometric mean IFN in arbitrary fluorescence units Geo TCR,[1],464 arbitrary fluorescence units
same,% inhibition at T=4H and T=24H FP 24h,HLA-A0201,75%
same,% CD8+ T cells producing IFN-γ % IFN,[2],2.5%
same,Geometric mean IFN-γ in arbitrary fluorescence units Geo IFN,[2],249 arbitrary fluorescence units
